Patent US20260287509A1, “METHOD FOR MEASURING CELLULAR MECHANICS IN AN IN VITRO FIBROSIS MODEL” (National Cheng Kung University, priority 2023, published 2026)

Experiments:
NRK-49F cells [1] = assay: Atomic force microscope measurement of stiffness and morphology of NRK-49F cells and collagen fibers in the in vitro fibrosis model (coaxial AFM/confocal system); type: cell-based, rat
Description: (§1) To clearly distinguish the cells from surrounding proteins, the method employs multiple fluorescent proteins for labeling. In this embodiment, rat renal fibroblasts (NRK-49F cells) were transfected to express Lifeact-RFP and cultured on collagen gels conjugated with FITC-labeled type-I collagen. The cultures were divided into a group treated with TGF-β1 and a control group without TGF-β1. TGF-β1 was added to mimic the activation of fibroblasts into myofibroblasts in fibrotic conditions such as kidney fibrosis and keloid, enabling subsequent analysis of cell contraction and collagen fiber interactions.
(§2) In this embodiment, the coaxial microscope system combines a laser-scanning confocal microscope (FV3000, Olympus) with sharp tip probe-equipped atomic-force microscope (BioScope Resolve, Bruker) […]. Before measurement, the spring constant, deflection sensitivity, and position of the probe were calibrated using No-Touch mode in AFM and vision in confocal microscopy.
Additionally, prior to measurement, a hydrophobic material is coated onto the sharp tip probe of the atomic force microscope. This prevents the probe from adhering to collagen fibers during scanning of the sample, thereby maintaining measurement accuracy.
After calibration, the regions of interest can be selected, captured, and measured using the coaxial microscope system. The elastic moduli are calculated from force-distance curves using a modified Sneddon model implemented in Bruker data-analysis software. Collagen fibers and cells are further analyzed for morphology and rigidity using NanoScope Analysis software (v1.9, Bruker).
FIG. 2 schematically illustrates a simplified experimental workflow for selecting the regions of interest and examining the sample using a coaxial microscope system of the laser scanning confocal microscope and the atomic force microscope. FITC-labeled collagen gels are prepared and seeded with Lifeact-RFP-transfected NRK-49F cells. After 24 hours of culture, drugs are added and media are refreshed. The prepared sample is mounted on the coaxial microscope system, the scan area is marked, and the sample is adjusted to the pre-marked area. Subsequently, images are acquired using the coaxial confocal microscope and atomic force microscope. Finally, the fluorescence and morphological images are merged, and the mechanical properties of the cells and collagen fibers are analyzed using software

NRK-49F cells [2] = assay: Confocal fluorescence imaging of FITC-labeled collagen fibers in NRK-49F cultures (FITC content); type: cell-based, rat; settings: after TGF-β1 stimulation vs control; FIG. 3 and FIG. 4 (FITC content)
Description: as §1, §2
FIG. 2 schematically illustrates a simplified experimental workflow for selecting the regions of interest and examining the sample using a coaxial microscope system of the laser scanning confocal microscope and the atomic force microscope. […] Finally, the fluorescence and morphological images are merged, and the mechanical properties of the cells and collagen fibers are analyzed using software

[3] = after TGF-β1 treatment vs control, AFM images, figure not shown

For transforming growth factor β1 [TGF-β1], the “increase in stiffness of collagen fibers” value (NRK-49F cells [1]; TGF-β1-treated vs control without TGF-β1, FITC-labeled type-I collagen gel seeded with Lifeact-RFP NRK-49F cells, AFM elastic modulus, FIG. 6) was “approximately 6.5 fold”, the “increase in stiffness of NRK-49F cells” value (NRK-49F cells [1]; TGF-β1-treated vs control without TGF-β1, Lifeact-RFP NRK-49F cells on collagen gel, AFM elastic modulus, FIG. 6) was about 6.7 fold and the “angle between collagen fibers and NRK-49F cells (A)” value (NRK-49F cells [1]; [3]) was “no significant difference”. For the same substance, the “diameter of collagen fibers (D1)” value (NRK-49F cells [1]; [3]) was “no significant difference” and the “density of collagen fibers” value (NRK-49F cells [2]) was “markedly increased”.
